Experimental data from patent US8952034B2, “Fused heterocyclic compounds as ion channel modulators” (Gilead Sciences, Inc., priority 2009, dated 2015).

biological target: wild-type human cardiac sodium channel, hNav1.5 (Homo sapiens, UniProt Q14524); test: Late INa screening assay (automated whole cell patch clamp, PatchXpress); format: cell-based; details: compound at 1 μM; HEK293 cells expressing hNav1.5; late INa generated with 10 μM Tefluthrin (or 50 nM ATX II); read-out: LateINa_1 uM (percent block of late INa)
Sequence (Q14524 whole entry): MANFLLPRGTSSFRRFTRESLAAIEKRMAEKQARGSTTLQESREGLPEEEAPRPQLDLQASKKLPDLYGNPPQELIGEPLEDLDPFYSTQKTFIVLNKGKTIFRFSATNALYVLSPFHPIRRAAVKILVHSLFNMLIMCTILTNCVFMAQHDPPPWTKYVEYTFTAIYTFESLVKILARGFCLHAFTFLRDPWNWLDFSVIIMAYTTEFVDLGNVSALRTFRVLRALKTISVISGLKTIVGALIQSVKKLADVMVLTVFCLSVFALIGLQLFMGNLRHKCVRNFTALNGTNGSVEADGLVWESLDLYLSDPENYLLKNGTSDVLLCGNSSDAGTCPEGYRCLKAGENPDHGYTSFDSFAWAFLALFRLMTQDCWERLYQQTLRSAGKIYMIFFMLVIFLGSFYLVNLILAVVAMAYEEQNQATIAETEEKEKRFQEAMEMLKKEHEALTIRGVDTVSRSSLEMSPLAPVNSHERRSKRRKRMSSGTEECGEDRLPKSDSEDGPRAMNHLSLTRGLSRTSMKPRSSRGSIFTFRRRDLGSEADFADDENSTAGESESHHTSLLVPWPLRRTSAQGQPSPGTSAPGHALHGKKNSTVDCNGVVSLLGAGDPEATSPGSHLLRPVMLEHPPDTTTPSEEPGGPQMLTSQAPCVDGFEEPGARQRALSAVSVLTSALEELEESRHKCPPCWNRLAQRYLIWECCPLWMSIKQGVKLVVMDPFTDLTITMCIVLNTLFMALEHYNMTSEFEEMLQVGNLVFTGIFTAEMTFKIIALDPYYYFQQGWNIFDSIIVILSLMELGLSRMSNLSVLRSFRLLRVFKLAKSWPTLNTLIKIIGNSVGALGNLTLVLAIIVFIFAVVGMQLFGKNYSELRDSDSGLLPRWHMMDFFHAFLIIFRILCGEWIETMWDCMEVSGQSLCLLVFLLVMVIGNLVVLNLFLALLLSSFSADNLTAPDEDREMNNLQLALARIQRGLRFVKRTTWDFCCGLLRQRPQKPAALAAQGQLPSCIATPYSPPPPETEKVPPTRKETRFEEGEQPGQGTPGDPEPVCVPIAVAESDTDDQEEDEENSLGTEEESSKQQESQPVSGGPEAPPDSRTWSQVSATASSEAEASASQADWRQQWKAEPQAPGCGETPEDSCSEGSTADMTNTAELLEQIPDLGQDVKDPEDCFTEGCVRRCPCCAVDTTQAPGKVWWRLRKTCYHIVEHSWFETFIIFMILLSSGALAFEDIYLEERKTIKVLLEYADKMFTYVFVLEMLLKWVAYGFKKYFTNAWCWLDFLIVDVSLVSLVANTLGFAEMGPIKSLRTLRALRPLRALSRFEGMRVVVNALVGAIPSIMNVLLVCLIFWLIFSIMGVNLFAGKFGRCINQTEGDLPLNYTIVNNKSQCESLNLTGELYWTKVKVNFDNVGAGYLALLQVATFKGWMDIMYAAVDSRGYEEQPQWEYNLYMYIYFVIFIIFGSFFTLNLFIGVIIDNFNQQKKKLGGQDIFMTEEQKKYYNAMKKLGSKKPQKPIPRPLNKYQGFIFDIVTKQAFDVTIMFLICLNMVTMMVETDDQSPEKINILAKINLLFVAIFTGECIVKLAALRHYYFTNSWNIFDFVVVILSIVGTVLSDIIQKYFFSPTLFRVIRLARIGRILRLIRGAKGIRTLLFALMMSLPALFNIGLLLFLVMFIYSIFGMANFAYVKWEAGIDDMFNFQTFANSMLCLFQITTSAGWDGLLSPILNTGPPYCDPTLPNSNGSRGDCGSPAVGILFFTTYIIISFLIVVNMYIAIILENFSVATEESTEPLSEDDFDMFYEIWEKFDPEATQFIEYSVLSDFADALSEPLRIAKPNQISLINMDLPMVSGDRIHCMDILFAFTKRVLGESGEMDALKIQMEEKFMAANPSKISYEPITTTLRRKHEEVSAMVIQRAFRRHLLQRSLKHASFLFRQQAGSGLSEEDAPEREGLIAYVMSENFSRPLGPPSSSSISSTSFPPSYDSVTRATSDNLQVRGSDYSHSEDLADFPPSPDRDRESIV
Description: The late sodium current (Late INa) and peak sodium current (Peak INa) assays are performed on an automated electrophysiology platform, PatchXpress 7000A (MDS Analytical Technologies, Sunnyvale, Calif.), which uses the whole cell patch clamp technique to measure currents through the cell membrane of up to 16 cells at a time. The assay uses an HEK293 (human embryonic kidney) cell line heterologously expressing the wild-type human cardiac sodium channel, hNav1.5, purchased from Millipore (Billerica, Mass.). No beta subunits were coexpressed with the Na channel alpha subunit. Cells are maintained with standard tissue culture procedures and stable channel expression is maintained with 400 μg/ml Geneticin in the culture medium. […] Experiments are carried out at 24-27° C.
For both the Late INa and Peak INa assays, series resistance compensation is set to 50% and whole-cell compensation is performed automatically. […] Currents through open sodium channels are automatically recorded and stored in the DataXpress2 database (MDS Analytical Technologies, Sunnyvale, Calif.). Analysis is performed using DataXpress2 analysis software and data are compiled in Excel.
Compound stocks are routinely made in glass vials to 10 mM in dimethyl sulfoxide (DMSO). In some cases, when compounds are not soluble in DMSO, they are made in 100% ethanol. Stocks are sonicated as necessary. The extracellular solution for screening Late INa is composed of: 140 mM NaCl, 4 mM KCl, 1.8 mM CaCl2, 0.75 mM MgCl2, and 5 mM HEPES with pH adjusted to 7.4 using NaOH. The extracellular solution for screening Peak INa is composed of: 20 mM NaCl, 120 mM N-methyl-D glucamine, 4 mM KCl, 1.8 mM CaCl2, 0.75 mM MgCl2, and 5 mM HEPES with pH adjusted to 7.4 using HCl. The intracellular solution used to perfuse the inside of the cells for both the Late INa and Peak INa assays contains: 120 mM CsF, 20 mM CsCl, 5 mM EGTA, 5 mM HEPES and pH adjusted to 7.4 with CsOH. […] The 0Na extracellular solution used at the end of each experiment for the Late INa and Peak INa assays to measure baseline current contains: 140 mM N-methyl-D-glucamine; 4 mM KCl; 1.8 mM CaCl2; 0.75 mM MgCl2; 5 mM HEPES and pH was adjusted to 7.4 with HCl.
For the Late INa assay, sodium channels are activated every 10 seconds (0.1 Hz) by depolarizing the cell membrane to −20 mV for 250 milliseconds (ms) from a holding potential of −120 mV. In response to a −20 mV voltage step, typical Nav1.5 sodium currents activate rapidly to a peak negative current and then inactivate nearly completely within […].
All compounds are tested to determine their activity in blocking the late sodium current. Late INa current is generated by adding 10 μM Tefluthrin (pyrethroid) to the extracellular solution while recording Na currents For some experiments, 50 nM ATX II (sea anemone toxin), another late INa activator, was used to generate the late component. […] After establishing the whole cell recording configuration, late INa activators are added to each well 4 times over a 16-17 minute period so that the late component of the Na current reaches a stable value. […] Measurements are made at the end of exposure to the third compound addition and values are normalized to the current level when all Na^+ is removed from the extracellular solution after two additions of 0Na-ECF. Results are reported as percent block of late INa

Compound | inhibition at 1 µM [%]
FC(F)(F)Oc1ccc(-c2ccc3nnc(C(F)(F)CCl)n3c2)cc1 [BHN-160, 3-(2-chloro-1,1-difluoroethyl)-6-[4-(trifluoromethoxy)phenyl][1,2,4]triazolo[4,3-a]pyridine] | 62
COCC(F)(F)c1nnc2ccc(-c3ccc(OC(F)(F)F)c(F)c3)cn12 [BHN-232, 3-(1,1-difluoro-2-methoxyethyl)-6-[3-fluoro-4-(trifluoromethoxy)phenyl][1,2,4]triazolo[4,3-a]pyridine] | 45.3
Cc1cc(OC(F)(F)F)ccc1-c1ccc2nnc(C(F)(F)F)n2n1 [BHN-26, 6-[2-methyl-4-(trifluoromethoxy)phenyl]-3-(trifluoromethyl)[1,2,4]triazolo[4,3-b]pyridazine] | 64.4
FC(F)(F)c1nnc2ccc(-c3ccc(Oc4ccc(Cl)cc4)cc3)cn12 [BHN-65, 6-[4-(4-chlorophenoxy)phenyl]-3-(trifluoromethyl)[1,2,4]triazolo[4,3-a]pyridine] | 55.6
Fc1cc(-c2ccc3nnc(C(F)(F)F)n3c2)ccc1OC(F)(F)F [BHN-146, 6-[3-fluoro-4-(trifluoromethoxy)phenyl]-3-(trifluoromethyl)[1,2,4]triazolo[4,3-a]pyridine] | 58.2
Cn1nc(COC(F)(F)c2nnc3ccc(-c4ccc(OC(F)(F)F)cc4)cn23)cc1-c1ccccc1 [BHN-224, 3-{difluoro[(1-methyl-5-phenyl-1H-pyrazol-3-yl)methoxy]methyl}-6-[4-(trifluoromethoxy)phenyl][1,2,4]triazolo[4,3-a]pyridine] | 24.2
FC(F)(F)Oc1ccc(-c2ccc3nnc(C(F)(F)OCc4noc(C5CC5)n4)n3c2)cc1 [BHN-206, 3-{[(5-cyclopropyl-1,2,4-oxadiazol-3-yl)methoxy](difluoro)methyl}-6-[4-(trifluoromethoxy)phenyl][1,2,4]triazolo[4,3-a]pyridine] | 44.7
FC(F)(F)c1ccc(-c2ccc3nnc(C(F)(F)OCC4CC4)n3c2)cn1 [BHN-275, 3-[(cyclopropylmethoxy)(difluoro)methyl]-6-[6-(trifluoromethyl)pyridin-3-yl][1,2,4]triazolo[4,3-a]pyridine] | 28.6
CC(C)c1nc(COC(F)(F)c2nnc3ccc(-c4ccc(OC(F)(F)F)cc4)cn23)no1 [BHN-208, 3-(difluoro{[5-(propan-2-yl)-1,2,4-oxadiazol-3-yl]methoxy}methyl)-6-[4-(trifluoromethoxy)phenyl][1,2,4]triazolo[4,3-a]pyridine] | 70.5
CC(OC(F)(F)c1nnc2ccc(-c3ccc(OC(F)(F)F)cc3)cn12)c1ccccn1 (stereo not drawn) [BHN-230, 3-{difluoro[1-(pyridin-2-yl)ethoxy]methyl}-6-[4-(trifluoromethoxy)phenyl][1,2,4]triazolo[4,3-a]pyridine] | 42.3
O=C(NCC(F)(F)c1nnc2ccc(-c3ccc(OC(F)(F)F)cc3)cn12)Nc1ccccc1 [BHN-263, 1-(2,2-difluoro-2-{6-[4-(trifluoromethoxy)phenyl][1,2,4]triazolo[4,3-a]pyridin-3-yl}ethyl)-3-phenylurea] | 22.6
COCCOC(F)(F)c1nnc2ccc(-c3ccc(OC(F)(F)F)cc3)cn12 [BHN-141, 3-[difluoro(2-methoxyethoxy)methyl]-6-[4-(trifluoromethoxy)phenyl][1,2,4]triazolo[4,3-a]pyridine] | 32.5
FC(F)(F)COc1nnc2ccc(-c3ccc(OC(F)(F)F)cc3)cn12 [BHN-186, 3-(2,2,2-trifluoroethoxy)-6-[4-(trifluoromethoxy)phenyl][1,2,4]triazolo[4,3-a]pyridine] | 45.2
Cc1nc(COC(F)(F)c2nnc3ccc(-c4ccc(OC(F)(F)F)cc4)cn23)c(C)o1 [BHN-228, 3-{[(2,5-dimethyl-1,3-oxazol-4-yl)methoxy](difluoro)methyl}-6-[4-(trifluoromethoxy)phenyl][1,2,4]triazolo[4,3-a]pyridine] | 73
CNC(=O)c1cccc(-c2nnc3ccc(-c4ccc(OC(F)(F)F)cc4)cn23)c1 [BHN-99, N-methyl-3-{6-[4-(trifluoromethoxy)phenyl][1,2,4]triazolo[4,3-a]pyridin-3-yl}benzamide] | 19.6
COCC(F)(F)c1nnc2ccc(C#Cc3ccc(C(F)(F)F)cc3)cn12 [BHN-234, 3-(1,1-difluoro-2-methoxyethyl)-6-{[4-(trifluoromethyl)phenyl]ethynyl}[1,2,4]triazolo[4,3-a]pyridine] | 57.8
FC(F)(F)Oc1ccc(-c2ccc3nnc(C(F)(F)OCc4cc(-c5ccccc5Cl)on4)n3c2)cc1 [BHN-326, 3-[{[5-(2-chlorophenyl)-1,2-oxazol-3-yl]methoxy}(difluoro)methyl]-6-[4-(trifluoromethoxy)phenyl][1,2,4]triazolo[4,3-a]pyridine] | 52.4
N#CC1(c2ccc(-c3ccc4nnc(C(F)(F)F)n4c3)cc2)CCCC1 [BHN-135, 1-{4-[3-(trifluoromethyl)[1,2,4]triazolo[4,3-a]pyridin-6-yl]phenyl}cyclopentanecarbonitrile] | 49.2
c1ccc(Oc2ccc(-c3ccc4nnnn4c3)cc2)cc1 [BHN-97, 6-(4-phenoxyphenyl)tetrazolo[1,5-a]pyridine] | 73.2
CC(C)(C)OC(=O)N1CCC[C@H]1COC(F)(F)c1nnc2ccc(-c3ccc(OC(F)(F)F)cc3)cn12 [BHN-256, tert-butyl (2S)-2-[(difluoro{6-[4-(trifluoromethoxy)phenyl][1,2,4]triazolo[4,3-a]pyridin-3-yl}methoxy)methyl]pyrrolidine-1-carboxylate] | 62.6
OC(c1nnc2ccc(-c3ccc(OC(F)(F)F)cc3)cn12)C(F)(F)F (stereo not drawn) [BHN-155, 2,2,2-trifluoro-1-{6-[4-(trifluoromethoxy)phenyl][1,2,4]triazolo[4,3-a]pyridin-3-yl}ethanol] | 16.2
FC(F)(F)Oc1ccc(-c2ccc3nnc(COC(F)(F)c4cccnc4)n3c2)cc1 [BHN-257, 3-{[difluoro(pyridin-3-yl)methoxy]methyl}-6-[4-(trifluoromethoxy)phenyl][1,2,4]triazolo[4,3-a]pyridine] | 46.2
FC(F)(F)Oc1ccc(-c2ccc3nnc(C(F)(F)F)n3c2)c(-c2cccnc2)c1 [BHN-132, 6-[2-(pyridin-3-yl)-4-(trifluoromethoxy)phenyl]-3-(trifluoromethyl)[1,2,4]triazolo[4,3-a]pyridine] | 29.4

same assay, conditions: compound at 10 μM; HEK293 cells expressing hNav1.5; late INa generated with 10 μM Tefluthrin (or 50 nM ATX II); read-out: LateINa_10 uM (percent block of late INa)

Compound | inhibition at 10 µM [%]
Cc1cc(OC(F)(F)F)ccc1-c1ccc2nnc(C(F)(F)F)n2n1 [BHN-26, 6-[2-methyl-4-(trifluoromethoxy)phenyl]-3-(trifluoromethyl)[1,2,4]triazolo[4,3-b]pyridazine] | 75.3
FC(F)(F)c1nnc2ccc(-c3ccc(Oc4ccc(Cl)cc4)cc3)cn12 [BHN-65, 6-[4-(4-chlorophenoxy)phenyl]-3-(trifluoromethyl)[1,2,4]triazolo[4,3-a]pyridine] | 85.7
Cc1cc(OC(F)(F)F)ccc1-c1cc(N)c2nnc(C)n2c1 [BHN-70, 3-methyl-6-[2-methyl-4-(trifluoromethoxy)phenyl][1,2,4]triazolo[4,3-a]pyridin-8-amine] | 40.4
COC(=O)/C=C/c1nc(C(F)(F)F)n2cc(-c3ccc(OC(F)(F)F)cc3)ccc12 [BHN-58, methyl (2E)-3-{6-[4-(trifluoromethoxy)phenyl]-3-(trifluoromethyl)imidazo[1,5-a]pyridin-1-yl}prop-2-enoate] | 27.6
FC(F)(F)Oc1ccc(-c2ccc3nnc(C(F)(F)F)n3c2)cc1CN1CCOCC1 [BHN-72, 6-[3-(morpholin-4-ylmethyl)-4-(trifluoromethoxy)phenyl]-3-(trifluoromethyl)[1,2,4]triazolo[4,3-a]pyridine] | 26.7
NC(=O)c1ccc(-c2nnc3ccc(-c4ccc(OC(F)(F)F)cc4)cn23)cc1 [BHN-79, 4-{6-[4-(trifluoromethoxy)phenyl][1,2,4]triazolo[4,3-a]pyridin-3-yl}benzamide] | 19.3
N#Cc1ccc(-c2nnc3ccc(-c4ccc(Oc5ccccc5)cc4)nn23)cc1 [BHN-40, 4-[6-(4-phenoxyphenyl)[1,2,4]triazolo[4,3-b]pyridazin-3-yl]benzonitrile] | 38.2
